In this experiment the test system is suture mesenchymal cells. Nature of the experiment: Western blot of Runx2 and OPN (osteogenic differentiation). Particulars: 20 μM Wnt agonist 1 or 100 nM LY2090314, one or two weeks, vs vehicle. Format: cell-based, mouse. On the procedure: Suture mesenchymal cells from one-month-old C57BL/6J mice were cultured with 20 μM Wnt agonist 1 (Selleck, S8178) or 100 nM LY2090314 (Selleck, S7063) for one or two weeks in αMEM. Medium was changed every other day. Total protein was extracted using a solution of loading buffer (Cell Signaling Technology, 7723S), protease inhibitor (Thermo Fisher Scientific, 1861278) and DTT (Cell Signaling Technology, 7723S), then separated by 10% SDS-PAGE and transferred to PVDF membranes (Millipore, ISEQ00005). Membranes were blocked with 5% non-fat dry milk dissolved in TBST for 2 hours at room temperature with gentle shaking, and then incubated with primary antibodies: anti-Runx2 (Cell signaling technology 12556, 1:1000), anti-OPN (Abcam ab63856, 1:500), and anti-βactin (Abcam ab20272, 1:1000) at 4° C. overnight followed by corresponding horseradish-peroxidase (HRP)-conjugated secondary antibodies. Protein expression was detected by Bio-Rad ChemiDoc Touch (Bio-Rad) and intensities of bands were quantitated by Image J software.

As to `COc1cccc(-c2cc(NCc3ccc4c(c3)OCO4)nc(N)n2)c1` [Wnt agonist 1], the OPN expression level entry is on record as “significantly increased” and the Runx2 expression level result was “significantly increased”.

Turning to `O=C1NC(=O)C(c2cnc3ccccn23)=C1c1cn2c3c(cc(F)cc13)CN(C(=O)N1CCCCC1)CC2` [LY2090314], the OPN expression level result is listed as “significantly increased” and the Runx2 expression level result was “significantly increased”.

(Values after patent US12629452B2, “Cranial suture regeneration” (University of Southern California, priority 2021, dated 2026).)
